Laboratory results taken from patent publication US9527830B2 (Merck Sharp & Dohme Corp., priority 2011, dated 2016).

How the values were obtained:
[1] = molecular target: T1, hROMK (hKir1.1) (Homo sapiens, UniProt P48048); test: Thallium Flux Assay (FluxOR, FLIPR-Tetra); type: cell-based; conditions: HEK293 cells stably expressing hROMK; potency ranges
T1 construct: expressed in transfected cells
T1 sequence (P48048 1-391): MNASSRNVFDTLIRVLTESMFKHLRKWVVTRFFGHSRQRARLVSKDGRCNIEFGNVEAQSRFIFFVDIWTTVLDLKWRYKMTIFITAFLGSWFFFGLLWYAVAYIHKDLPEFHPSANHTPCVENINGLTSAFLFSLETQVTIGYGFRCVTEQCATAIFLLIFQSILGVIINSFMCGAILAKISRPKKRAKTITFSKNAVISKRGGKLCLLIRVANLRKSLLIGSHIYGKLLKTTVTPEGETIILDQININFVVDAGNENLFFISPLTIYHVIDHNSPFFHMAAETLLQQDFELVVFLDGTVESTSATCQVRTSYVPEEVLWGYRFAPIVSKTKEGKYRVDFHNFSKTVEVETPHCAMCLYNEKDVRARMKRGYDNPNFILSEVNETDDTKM
Experimental: (§1) Several assays may be used to measure functional inhibition of the ROMK channel by compounds of the instant invention. One primary assay that can be used is a functional ^86Rb^+ efflux assay that measures the ability of ROMK to permeate ^86Rb^+, in the absence or presence of test compound. Under control conditions, cells loaded with ^86Rb^+ and incubated in Rb^+-free medium display a time-dependent efflux of the isotope, the rate of which depends on number of functional channels. When cells are incubated in the presence of a channel inhibitor, efflux of ^86Rb^+ is prevented in a concentration-dependent manner, and IC50 values of inhibition by compounds can be accurately determined. This assay has been established with cell lines expressing either human, rat or dog ROMK channels, and can operate in 96- or 384-well format. Importantly, the human, rat, and dog ^86Rb^+ efflux assays can be carried out in the presence of up to 100% serum allowing, therefore, an accurate estimation of the effect of protein binding on the inhibitory activity of compounds of interest. Another ROMK functional assay makes use of the ability of thallium to permeate through open ROMK channels and increase the fluorescence of a dye previously loaded into the cells. Under control conditions, cells loaded with dye and exposed to thallium-containing medium display a time-dependent increase in fluorescence, the rate of which depends on number of functional channels. When cells are incubated in the presence of a channel inhibitor, the increase in fluorescence is attenuated in a concentration-dependent manner, and IC50 values of inhibition by compounds can be accurately determined. This assay has been established with cell lines expressing either human, or rat ROMK channels, and operates in 384-well format. Another assay for evaluation of the compounds of the instant invention and for evaluation of mechanism of action of compounds of Formula I relies on the measurement of the electrical current that is generated as potassium permeates through the channel. For these electrophysiological experiments, three different platforms, IonWorks, QPatch, or manual patch clamp, are used, depending on the experimental protocol under consideration. IonWorks operates in a 384-well format and allows accurate determination of IC50 values for inhibitors.
HEK293 cells stably expressing hROMK (hKir1.1) were grown at 37° C. in a 10% CO2 humidified incubator in complete growth media: Dulbecco's Modified Eagle Medium supplemented with non-essential amino acids, Penicillin/Streptomycin/Glutamine, G418 and FBS. At >80% confluency, media was aspirated from the flask and rinsed with 10 ml Calcium/Magnesium-free PBS. 5 ml of 1× trypsin (prepared in Ca/Mg Free PBS) was added to T-225 flask and flask returned to 37° C./CO2 incubator for 2-3 minutes. To dislodge the cell, the side of the flask was gently banged by hand. Cells were completely triturated and then transferred to 25 ml complete media, and centrifuged at 1,500 rpm for 6 min followed by resuspension in complete growth media and cell concentration determined. For typical re-seeding, 4E6 cells/T-225 flask attained >80% confluency in 4 days. Under ideal growth conditions and appropriate tissue culture practices, this cell line was stable for 40-45 passages.
FluxOR™ Kit Components (Invitrogen F10017)
• FluxOR™ Reagent (Component A) • FluxOR™ Assay Buffer (Component B)—10× Concentrate • PowerLoad™ Concentrate (Component C)—100× Concentrate • Probenecid (Component D)—Lyophilized sample was kept at −20° C. Water soluble, 100× after solubilization in 1 ml water. Store at 4° C. • FluxOR™ Chloride-free Buffer (Component E)—5× Concentrate • Potassium sulfate (K2SO4) Concentrate (Component F)—125 mM in water. Stored at 4° C. • Thallium sulfate (Tl2SO4) Concentrate (Component G)—50 mM in water. […]

[2] = molecular target: T2, hROMK1 (Kir1.1) (Homo sapiens, UniProt P48048); test: ^86Rb^+ Efflux Assay; type: cell-based; conditions: CHO-DHFR- cells stably expressing hROMK1; potency ranges
T2 construct: expressed in transfected cells
T2 sequence (P48048 1-391): T1 sequence (P48048 1-391)
Experimental: as §1
CHO-DHFR-cells stably expressing hROMK1 (Kir1.1) were grown at 37° C. in a 10% CO2 humidified incubator in Iscove's Modified Dulbecco's Medium (Gibco 12440) supplemented with HT Supplement, Penicillin/Streptomycin/Glutamine, G418 (500 μg/ml) and 10% FBS. Cells were seeded in Sterile and Tissue Culture Treated Packard CulturPlate White Opaque Microplates at a concentration of 5.0E5-7.0E5 cells/ml—PerkinElmer 6005680 (96-well); Corning 3707 (384 well) in complete media containing 1.5 μCi/ml Rubidium-86. Cells were incubated in 37° C.-10% CO2 incubator overnight. On the day of the experiment, the media was removed and cells washed with low K assay buffer. ^86Rb^+ efflux was initiated after addition of assay buffer±test compound followed by 35 min incubation at room temperature. ROMK-sensitive component of efflux was defined in the presence of 10 mM BaCl2. Assay buffer was removed and transferred to a plate and cells were solubilized in the presence of SDS. Radioactivity associated with assay and cell plate was determined.
• 1. Removed cell media and washed cells with low K assay buffer (126.9 mM NaCl, 4.6 mM KCl, 2 mM CaCl2, 1 mM MgCl2, 10 mM Hepes/NaOH; pH 7.4) • 200 μl for 96-well plate; 70 μl for 384-well plate • 2. Added assay buffer (121.5 mM NaCl, 10 mM KCl, 2 mM CaCl2, 1 mM MgCl2, 10 mM Hepes/NaOH; pH 7.4)±test compound to cells • 100 μl for 96-well plate; 50 μl for 384-well plate • 3. Incubated at ambient temperature (22-24° C.) for 35 min • 4.

Compound: Cc1c(CCN2CCC(NCc3ccc4nonc4c3)CC2)ccc2c1COC2=O [Example 89, 5-(2-{4-[(2,1,3-Benzoxadiazol-5-ylmethyl)amino]piperidin-1-yl}ethyl)-4-methyl-2-benzofuran-1(3H)-one]
- IC50 [1]: ≤ 200 nM
- IC50 [2]: ≤ 500 nM

Compound: O=C1OCc2cc(SC3CCN(CC(O)c4ccc5c(c4)COC5=O)CC3)ccc21 (centres unmarked) [Example 85, 5-({1-[2-hydroxy-2-(1-oxo-1,3-dihydro-2-benzofuran-5-yl)ethyl]piperidin-4-yl}sulfanyl)-2-benzofuran-1(3H)-one]
- IC50 [1]: ≤ 200 nM
- IC50 [2]: ≤ 500 nM

Compound: Cc1c(CCN2CCC(NCc3ccc4c(c3)COC4=O)CC2)ccc2c1COC2=O [Example 88, 4-Methyl-5-[2-(4-{[(1-oxo-1,3-dihydro-2-benzofuran-5-yl)methyl]amino}piperidin-1-yl)ethyl]-2-benzofuran-1(3H)-one]
- IC50 [1]: ≤ 100 nM
- IC50 [2]: ≤ 200 nM

Compound: Cc1c([C@@H](O)CN2CCC(Nc3ccc(C#N)cn3)CC2)ccc2c1COC2=O [Example 111, (R)-6-(1-(2-Hydroxy-2-(4-methyl-1-oxo-1,3-dihydroisobenzofuran-5-yl)ethyl)piperidin-4-ylamino)nicotinonitrile]
- IC50 [1]: ≤ 100 nM

Compound: Cc1c([C@@H](O)CN2CCC(CS(=O)(=O)c3ccc4c(c3C)COC4=O)CC2)ccc2c1COC2=O [Example 99]
- IC50 [1]: ≤ 100 nM

Compound: Cc1c([C@@H](O)CN2CCC(CSc3ccc4c(c3)CCOC4=O)CC2)ccc2c1COC2=O [Example 103, 6-[({1-[(2R)-2-Hydroxy-2-(4-methyl-1-oxo-1,3-dihydro-2-benzofuran-5-yl)ethyl]piperidin-4-yl}methyl)sulfanyl]-3,4-dihydro-1H-isochromen-1-one]
- IC50 [1]: ≤ 200 nM

Compound: Cc1c([C@@H](O)CN2[C@@H]3CC[C@H]2CC(Nc2ccc(C#N)cn2)C3)ccc2c1COC2=O (stereo partly drawn) [Example 112, 6-((1R,5S)-8-((R)-2-Hydroxy-2-(4-methyl-1-oxo-1,3-dihydroisobenzofuran-5-yl)ethyl)-8-azabicyclo[3.2.1]octan-3-ylamino)nicotinonitrile]
- IC50 [1]: ≤ 100 nM

Compound: Cc1c(SCC2CCN(C[C@H](O)c3ccc4c(c3C)COC4=O)CC2)ccc2c1COC2=O [Example 94, 5-[({1-[(2R)-2-Hydroxy-2-(4-methyl-1-oxo-1,3-dihydro-2-benzofuran-5-yl)ethyl]piperidin-4-yl}methyl)sulfanyl]-4-methyl-2-benzofuran-1(3H)-one]
- IC50 [1]: ≤ 100 nM

Compound: Cc1c([C@@H](O)CN2CCC(CS(=O)(=O)c3ccc4c(c3)CCOC4=O)CC2)ccc2c1COC2=O [Example 109, 6-[({1-[(2R)-2-Hydroxy-2-(4-methyl-1-oxo-1,3-dihydro-2-benzofuran-5-yl)ethyl]piperidin-4-yl}methyl)sulfonyl]-3,4-dihydro-1H-isochromen-1-one]
- IC50 [1]: ≤ 100 nM

Compound: Cc1c(OCC2CCN(C[C@H](O)c3ccc4c(c3C)COC4=O)CC2)ccc2c1COC2=O [Example 95, 5-({1-[(2R)-2-Hydroxy-2-(4-methyl-1-oxo-1,3-dihydro-2-benzofuran-5-yl)ethyl]piperidin-4-yl}methoxy)-4-methyl-2-benzofuran-1(3H)-one]
- IC50 [1]: ≤ 100 nM

Compound: Cc1c([C@@H](O)CN2CCC(CSc3ccc(C#N)cn3)CC2)ccc2c1COC2=O [Example 100, 6-[({1-[(2R)-2-Hydroxy-2-(4-methyl-1-oxo-1,3-dihydro-2-benzofuran-5-yl)ethyl]piperidin-4-yl}methyl)sulfanyl]pyridine-3-carbonitrile]
- IC50 [1]: ≤ 100 nM

Compound: Cc1c(CC(O)C2CCN(C[C@H](O)c3ccc4c(c3C)COC4=O)CC2)ccc2c1COC2=O (stereo partly drawn) [Example 87, 5-[(1R)-1-Hydroxy-2-{4-[1-hydroxy-2-(4-methyl-1-oxo-1,3-dihydro-2-benzofuran-5-yl)ethyl]piperidin-1-yl}ethyl]-4-methyl-2-benzofuran-1(3H)-one]
- IC50 [1]: ≤ 100 nM
- IC50 [2]: ≤ 200 nM

Compound: Cc1c([C@@H](O)CN2CCC(F)(COc3ccc(C#N)cn3)CC2)ccc2c1COC2=O [Example 102, 6-({4-Fluoro-1-[(2R)-2-hydroxy-2-(4-methyl-1-oxo-1,3-dihydro-2-benzofuran-5-yl)ethyl]piperidin-4-yl}methoxy)pyridine-3-carbonitrile]
- IC50 [1]: ≤ 200 nM

Compound: Cc1c([C@@H](O)CN2CC3C(COc4ccc(C#N)cn4)C3C2)ccc2c1COC2=O (stereo partly drawn) [Example 106, 6-({3-[(2R)-2-Hydroxy-2-(4-methyl-1-oxo-1,3-dihydro-2-benzofuran-5-yl)ethyl]-3-azabicyclo[3.1.0]hex-6-yl}methoxy)pyridine-3-carbonitrile]
- IC50 [1]: ≤ 100 nM

Compound: Cc1c([C@@H](O)CN2CCC(C[S+]([O-])c3ccc4c(c3C)COC4=O)CC2)ccc2c1COC2=O (stereo partly drawn) [Example 96, 5-[({1-[(2R)-2-hydroxy-2-(4-methyl-1-oxo-1,3-dihydro-2-benzofuran-5-yl)ethyl]piperidin-4-yl}methyl)sulfinyl]-4-methyl-2-benzofuran-1(3H)-one]
- IC50 [1]: ≤ 100 nM

Compound: Cc1c([C@@H](O)CN2CCC(C[S+]([O-])c3ccc4c(c3)CCOC4=O)CC2)ccc2c1COC2=O (stereo partly drawn) [Example 104, 6-[({1-[(2R)-2-Hydroxy-2-(4-methyl-1-oxo-1,3-dihydro-2-benzofuran-5-yl)ethyl]piperidin-4-yl}methyl)sulfinyl]-3,4-dihydro-1H-isochromen-1-one]
- IC50 [1]: ≤ 100 nM

Compound: Cc1c([C@@H](O)CN2CCC(CN(C)c3ccc(C#N)cn3)CC2)ccc2c1COC2=O [Example 93, 6-[({1-[(2R)-2-Hydroxy-2-(4-methyl-1-oxo-1,3-dihydro-2-benzofuran-5-yl)ethyl]piperidin-4-yl}methyl)(methyl)amino]pyridine-3-carbonitrile]
- IC50 [1]: ≤ 200 nM

Compound: Cc1c([C@@H](O)CN2CCC(C)(COc3ccc(C#N)cn3)CC2)ccc2c1COC2=O [Example 107]
- IC50 [1]: ≤ 100 nM

Compound: Cc1c(C(O)CC2CCN(C(=O)Cc3ccc(-n4cnnn4)nc3)CC2)ccc2c1COC2=O (racemic) [Example 110, 5-[1-Hydroxy-2-(1-{[6-(1H-tetrazol-1-yl)pyridin-3-yl]acetyl}piperidin-4-yl)ethyl]-4-methyl-2-benzofuran-1(3H)-one]
- IC50 [1]: ≤ 100 nM
